In patent US20220281866A1, “5,8-DISUBSTITUTED-[1,2,4]TRIAZOLO[1,5-A]PYRIDINYL AND 5,8-DISUBSTITUTED-IMIDAZO[1,2-A]PYRIDINE DERIVATIVES USEFUL AS INHIBITORS OF ENTEROPEPTIDASE” (Janssen Pharmaceutica NV, priority 2019, published 2022):

Legend:
[1] = target: T1, Recombinant full-length human EP (Enteropeptidase) (Homo sapiens, UniProt P98073); experiment: In vitro inhibition potencies against Enteropeptidase (EP), fluorescent peptide GDDDDK-naphthylamine substrate; assay type: biochemical; details: 300 μM substrate, 1.25 nM EP; for inhibition at 0.1 µM: compound 0.1 μM; for inhibition at 1 µM: compound 1 μM; for inhibition at 10 µM: compound 10 μM
T1 construct: Recombinant full-length human EP (PeproTech, Cat #450-48C); purchased PeproTech 450-48C
Experimental: In vitro inhibition potencies against Enteropeptidase (EP) Recombinant full-length human EP (PeproTech, Cat #450-48C) was used in this biochemical assay, with a quenched fluorescent labeled peptide GDDDDK-naphthylamine (NA) (Sigma, Cat #G5261) as the substrate in a buffer of 50 mM Tris-HCl pH 7.4, 200 mM NaCl and 0.01% Triton X-100. The enzyme activity was measured by following the formation of the cleavage product […](NA) by monitoring the fluorescence intensity (FI) at excitation/emission wavelengths of 340/410 nm. The steady-state kinetic characterization studies yielded an average of KM to be 412±22 μM and the apparent turnover number kcat^app of 11.8±0.4 s^−1 (N=2).
Compound inhibition studies were carried out under the conditions of 300 μM substrate and 1.25 nM EP. Reaction progress curves were collected by reading the FI at 340/410 nm continuously for 1 hour at an interval of 1 minute.
To screen compounds of formula (I), inhibition was studied at 4 different compound concentrations of 10 μM, 1 μM, 0.1 μM and 0.01 μM. Initial velocity of the reaction was determined, and percent of inhibition was calculated by comparing to the reaction in the absence of compound.
Accurate measurements of the inhibition potencies of selected compounds were studied in a 12-point dose-dependence fashion. […] Compound potency was measured by determining the inactivation rate constant (kobs) following the reaction change from the initial velocity vi to the steady-state velocity vs at various compound concentrations. The inactivation rate constants (kobs), were derived by fitting the reaction progress curves to eq. 1.
where YT is the detection signal of the reaction at time t, vi and vs are the initial and the steady-state velocities of the reaction, t is the reaction time. Y0 is the background signal (when t=0).
Compound binding mechanism was shown by plotting kobs˜[compound]. Hyperbolic fitting to eq. 2
conforms to a two-step binding mechanism as shown in Scheme BIO-1.
The plateau of the curve is the forward step rate constant of the isomerization step k3, KI^app is the inhibitor concentration that leads to half-maximal rate of inhibition of enzyme under the assay conditions. Compound inhibition potency was reported by the value of k3/KI^app.
A linear dependence of eq.3
indicates a one-step binding mechanism as shown in Scheme BIO-2
Slope of the linear fit gives the second-order rate constant of the compound binding k1, which is used to represent the compound inhibition potency.
(§1) Representative compounds of the present invention were tested according to the procedures as described in Biological Example 1 and Biological Example 2 above, with results as listed in Table 2 and Table 3, below. Results are reported as the %-inhibition (% Inh) or Kinact/KI value. Variability for the functional assay was typically within 20%. For the column headed Kinact/KI the listed measurement is the result of duplicate dilutions.

Bovine trypsin = target: T2, Bovine trypsin (Bos taurus, UniProt P00760); experiment: Biochemical Assay of Trypsin (T), H-D-CHA-AR-AMC substrate; details: 15 μM substrate, 0.025 nM Trypsin; for inhibition at 0.1 µM: compound 0.1 μM; for inhibition at 1 µM: compound 1 μM; for inhibition at 10 µM: compound 10 μM
T2 construct: purchased Sigma-Aldrich T1426
T2 sequence (P00760 24-246): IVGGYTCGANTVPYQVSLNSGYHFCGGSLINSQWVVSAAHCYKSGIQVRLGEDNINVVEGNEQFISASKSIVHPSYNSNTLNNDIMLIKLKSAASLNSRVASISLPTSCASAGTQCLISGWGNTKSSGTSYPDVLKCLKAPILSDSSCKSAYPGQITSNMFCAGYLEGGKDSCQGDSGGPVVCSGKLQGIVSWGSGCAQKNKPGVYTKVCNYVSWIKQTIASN
Experimental: Bovine trypsin was purchased from Sigma-Aldrich (Cat No. T1426), and 7-amino-4-methylcoumarin (AMC) conjugated peptide H-D-cyclohexylalanine (D-CHA)-AR-AMC was used as the substrate in the assay. The protease activity of trypsin was followed by measuring AMC production by the emission fluorescence intensity of AMC at 460 nm with the excitation at 375 nm, in the same assay buffer as used in the EP assay. The enzyme kinetic characterization studies yielded an average of KM to be 3.9±0.5 μM and the apparent turnover number kcat^app of 33.8±0.4 s^−1 (N=2).
Studies of compound inhibition against T were carried out under the conditions of 15 μM substrate and 0.025 nM Trypsin. Reaction progress curves were collected by reading the FI at 375/460 nm continuously for 1 hour at an interval of 1 minute. Similar to the procedure for Enteropeptidase described above, compounds of formula (I) were screened against Trypsin at 4 different concentrations to obtain the percent of inhibition at 10 μM, 1 μM, 0.1 μM and 0.01 μM, and accurate potencies of selected compounds against Trypsin were derived from detailed 12-point dose-dependence studies for time-dependent inhibitors.
as §1

T1 sequence (P98073 whole entry): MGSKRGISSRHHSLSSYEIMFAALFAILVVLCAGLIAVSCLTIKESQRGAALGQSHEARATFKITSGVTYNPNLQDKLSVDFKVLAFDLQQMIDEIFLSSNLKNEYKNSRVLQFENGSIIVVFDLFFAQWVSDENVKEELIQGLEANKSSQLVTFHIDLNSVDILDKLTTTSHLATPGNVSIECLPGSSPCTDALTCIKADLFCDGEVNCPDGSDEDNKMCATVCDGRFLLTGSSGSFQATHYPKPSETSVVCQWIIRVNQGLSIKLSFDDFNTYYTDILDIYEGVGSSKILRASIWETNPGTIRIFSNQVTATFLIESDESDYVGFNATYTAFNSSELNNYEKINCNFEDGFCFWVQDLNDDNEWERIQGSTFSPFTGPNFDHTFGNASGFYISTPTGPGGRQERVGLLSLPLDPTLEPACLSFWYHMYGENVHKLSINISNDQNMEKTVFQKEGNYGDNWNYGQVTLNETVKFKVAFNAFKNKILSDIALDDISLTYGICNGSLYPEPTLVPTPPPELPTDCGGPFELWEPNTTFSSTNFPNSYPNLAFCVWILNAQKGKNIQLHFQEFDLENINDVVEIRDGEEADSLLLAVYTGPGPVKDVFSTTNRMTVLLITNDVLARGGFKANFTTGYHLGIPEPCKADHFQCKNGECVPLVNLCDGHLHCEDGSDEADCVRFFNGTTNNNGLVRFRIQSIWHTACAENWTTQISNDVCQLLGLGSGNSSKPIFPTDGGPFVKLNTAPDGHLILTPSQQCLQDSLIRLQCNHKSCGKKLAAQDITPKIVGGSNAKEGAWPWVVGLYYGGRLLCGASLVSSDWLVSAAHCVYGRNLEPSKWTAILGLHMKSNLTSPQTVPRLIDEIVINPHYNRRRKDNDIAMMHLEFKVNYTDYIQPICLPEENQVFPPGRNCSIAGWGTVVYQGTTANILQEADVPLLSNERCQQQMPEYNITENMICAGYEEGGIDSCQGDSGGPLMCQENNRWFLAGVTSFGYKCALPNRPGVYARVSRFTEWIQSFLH

| inhibition at 0.1 µM [1] [%] | inhibition at 1 µM [1] [%] | inhibition at 10 µM [1] [%] | inhibition at 0.1 µM (Bovine trypsin) [%] | inhibition at 1 µM (Bovine trypsin) [%] | inhibition at 10 µM (Bovine trypsin) [%] | SMILES |
| --- | --- | --- | --- | --- | --- | --- |
| 18.7 | 84.4 | 101 | 6.3 | 56.6 | 99.8 | N=C(N)Nc1ccc(C(=O)Oc2ccc(CC(=O)O)n3ncnc23)cc1Cl [Compound 16, 2-(8-(3-chloro-4-guanidinobenzoyloxy)-[1,2,4]triazolo[1,5-a]pyridin-5-yl)acetic] |
| 73 | 101 | 100 | 99.8 | 100 | 100 | N=C(N)Nc1ccc(C(=O)Oc2ccc(C3OC(=O)NC3=O)n3ncnc23)cc1 (stereo not drawn) [Compound 17, 5-(2,4-dioxooxazolidin-5-yl)-[1,2,4]triazolo[1,5-a]pyridin-8-yl 4-guanidinobenzoate] |
| 81.2 | 100 | 100 | 43.5 | 97.6 | 99.9 | N=C(N)Nc1ccc(C(=O)Oc2ccc(CC(=O)O)n3ncnc23)c(Cl)c1 [Compound 18, 2-(8-(2-chloro-4-guanidinobenzoyloxy)-[1,2,4]triazolo[1,5-a]pyridin-5-yl)acetic acid] |
| 10.3 | 59.9 | 101 | 9.5 | 48.9 | 99.7 | Cc1cc(NC(=N)N)ccc1C(=O)Oc1ccc(CC(=O)O)n2ncnc12 [Compound 19, 2-(8-(4-guanidino-2-methylbenzoyloxy)-[1,2,4]triazolo[1,5-a]pyridin-5-yl)acetic acid] |
| 4.1 | 38.5 | 98.9 | 2.3 | 16.6 | 88.7 | N=C(N)Nc1ccc(C(=O)Oc2ccc(CC(=O)O)n3ncnc23)c(C(F)(F)F)c1 [Compound 20, 2-(8-(4-guanidino-2-(trifluoromethyl)benzoyloxy)-[1,2,4]triazolo [1,5-a]pyridin-5-yl)acetic acid] |
| 99.4 | 100 | 100 | 97.1 | 99.7 | 100 | N=C(N)Nc1ccc(C(=O)Oc2ccc(CC(=O)O)n3ncnc23)c(F)c1 [Compound 21, 2-(8-(2-fluoro-4-guanidinobenzoyloxy)-[1,2,4]triazolo[1,5-a]pyridin-5-yl)acetic acid] |
| -3 | -6.3 | 32.1 | 0.9 | 12.3 | 29.9 | N#Cc1cc(C(=O)Oc2ccc(CC(=O)O)n3ncnc23)ccc1NC(=N)N [Compound 22, 2-(8-(3-cyano-4-guanidinobenzoyloxy)-[1,2,4]triazolo[1,5-a]pyridin-5-yl)acetic acid] |
| 34.3 | 92.1 | 101 | 12.4 | 73.1 | 100 | N=C(N)Nc1ccc(C(=O)Oc2ccc(CC(=O)O)n3ncnc23)cc1O [Compound 23, 2-(8-(4-guanidino-3-hydroxybenzoyloxy)-[1,2,4]triazolo[1,5-a]pyridin-5-yl)acetic acid] |
| 36.3 | 98.8 | 100 | 14.6 | 80 | 99.9 | N=C(N)Nc1ccc(C(=O)Oc2ccc(CC(=O)O)n3ncnc23)c2ccoc12 [Compound 24] |
| 45.2 | 102 | 101 | 99.2 | 100 | 100 | N=C(N)Nc1ccc(C(=O)Oc2cc(CCC(=O)O)cn3ncnc23)cc1 [Compound 25, 3-(8-(4-guanidinobenzoyloxy)-[1,2,4]triazolo[1,5-a]pyridin-6-yl)propanoic acid] |
| 13.2 | 58.8 | 101 | 81.7 | 100 | 100 | N=C(N)Nc1ccc(C(=O)Oc2cc(CC(=O)O)cn3ncnc23)cc1 [Compound 26, 2-(8-(4-guanidinobenzoyloxy)-[1,2,4]triazolo[1,5-a]pyridin-6-yl)acetic acid] |
| 81.2 | 100 | 100 | 99.3 | 100 | 100 | N=C(N)Nc1ccc(C(=O)Oc2ccc(CC(=O)NC(CC(=O)O)C(=O)O)n3ccnc23)cc1 (stereo not drawn) [Compound 27, 2-(2-(8-(4-guanidinobenzoyloxy)imidazo[1,2-a]pyridin-5-yl)acetamido)succinic acid] |
| 88.6 | 98.5 | 99.9 | 97.8 | 99.9 | 100 | N=C(N)Nc1ncc(C(=O)Oc2ccc(CC(=O)NC(CC(=O)O)C(=O)O)n3ncnc23)cn1 (stereo not drawn) [Compound 28, 2-(2-(8-(2-guanidinopyrimidine-5-carbonyloxy)-[1,2,4]triazolo[1,5-a]pyridin-5-yl)acetamido)succinic acid] |
| 95.3 | 99.4 | 100 | 95.8 | 99.7 | 100 | N=C(N)Nc1ncc(C(=O)Oc2ccc(CC(=O)O)n3ccnc23)cn1 [Compound 29, 2-(8-(2-guanidinopyrimidine-5-carbonyloxy)imidazo[1,2-a]pyridin-5-yl)acetic acid] |
| 92.1 | 99.5 | 100 | 96.5 | 100 | 100 | CS(=O)(=O)NC(=O)Cc1ccc(OC(=O)c2cnc(NC(=N)N)nc2)c2ncnn12 [Compound 30, 5-(2-(methylsulfonamido)-2-oxoethyl)-[1,2,4]triazolo[1,5-a]pyridin-8-yl 2-guanidinopyrimidine-5-carboxylate] |
| 85.8 | 99.7 | 99.8 | 95.7 | 99.9 | 100 | N=C(N)Nc1ncc(C(=O)Oc2ccc(CC(=O)NC(CC(=O)O)C(=O)O)n3ccnc23)cn1 (stereo not drawn) [Compound 31, 2-(2-(8-(2-guanidinopyrimidine-5-carbonyloxy)imidazo[1,2-a]pyridin-5-yl)acetamido)succinic acid] |
